pIC50: −log10 of the molar value. Where two headings read alike, the source gives them in different places.
Columns and labels:
Format in all cases: cell-based
human TLR9 = target: T1, human TLR9 (Homo sapiens, UniProt Q9NR96); assay: TLR9 inhibition reporter assay (HEK-Blue cells, secreted embryonic alkaline phosphatase reporter)
T1 construct: host or cells: HEK-Blue cells (HEK293-derived reporter line)
T1 sequence (Q9NR96 26-1032): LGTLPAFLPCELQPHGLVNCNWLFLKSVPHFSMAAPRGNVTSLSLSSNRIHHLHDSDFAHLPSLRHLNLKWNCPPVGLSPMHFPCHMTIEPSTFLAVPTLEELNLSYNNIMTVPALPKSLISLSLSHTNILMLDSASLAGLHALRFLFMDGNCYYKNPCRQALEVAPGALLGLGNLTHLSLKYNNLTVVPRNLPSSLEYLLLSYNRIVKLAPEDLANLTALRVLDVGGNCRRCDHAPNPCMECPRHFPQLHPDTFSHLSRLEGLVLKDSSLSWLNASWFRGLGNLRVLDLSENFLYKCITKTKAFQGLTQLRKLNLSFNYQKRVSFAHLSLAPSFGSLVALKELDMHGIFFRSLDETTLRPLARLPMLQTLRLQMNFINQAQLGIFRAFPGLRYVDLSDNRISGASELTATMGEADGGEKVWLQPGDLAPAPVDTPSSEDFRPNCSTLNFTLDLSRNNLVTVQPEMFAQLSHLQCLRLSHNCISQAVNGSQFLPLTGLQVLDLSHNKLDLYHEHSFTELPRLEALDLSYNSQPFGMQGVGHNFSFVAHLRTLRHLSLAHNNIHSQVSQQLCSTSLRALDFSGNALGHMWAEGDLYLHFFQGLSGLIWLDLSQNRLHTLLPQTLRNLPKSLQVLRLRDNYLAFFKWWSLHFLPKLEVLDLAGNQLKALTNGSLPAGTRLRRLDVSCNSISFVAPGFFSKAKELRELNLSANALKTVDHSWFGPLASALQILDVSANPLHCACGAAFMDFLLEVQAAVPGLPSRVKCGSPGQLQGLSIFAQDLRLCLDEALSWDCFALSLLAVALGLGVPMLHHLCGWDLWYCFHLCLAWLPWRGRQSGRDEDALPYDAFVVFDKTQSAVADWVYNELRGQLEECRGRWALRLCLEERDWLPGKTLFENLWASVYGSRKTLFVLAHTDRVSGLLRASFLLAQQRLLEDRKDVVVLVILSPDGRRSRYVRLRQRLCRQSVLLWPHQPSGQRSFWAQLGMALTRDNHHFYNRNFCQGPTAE
Summary of the method: (§1)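 Inhibitors are tested in dose response (0.05 nM–50 μM) on HEK-Blue reporter cells expressing human TLR7, TLR8 or TLR9. After 30 min at room temperature, each line is stimulated with its own agonist (gardiquimod 7.5 μM, R848 15.9 μM or ODN2006 5 nM, final) and SEAP is measured 22 h later.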

human TLR7 = target: T2, human TLR7 (Homo sapiens, UniProt Q9NYK1); assay: TLR7 inhibition reporter assay (HEK-Blue cells, secreted embryonic alkaline phosphatase reporter); details: HEK-Blue cells overexpressing human TLR7, stimulated with gardiquimod 7.5 μM; read-out: TLR 7 IC50
T2 construct: host or cells: HEK-Blue cells (HEK293-derived reporter line)
T2 sequence (Q9NYK1 27-1049): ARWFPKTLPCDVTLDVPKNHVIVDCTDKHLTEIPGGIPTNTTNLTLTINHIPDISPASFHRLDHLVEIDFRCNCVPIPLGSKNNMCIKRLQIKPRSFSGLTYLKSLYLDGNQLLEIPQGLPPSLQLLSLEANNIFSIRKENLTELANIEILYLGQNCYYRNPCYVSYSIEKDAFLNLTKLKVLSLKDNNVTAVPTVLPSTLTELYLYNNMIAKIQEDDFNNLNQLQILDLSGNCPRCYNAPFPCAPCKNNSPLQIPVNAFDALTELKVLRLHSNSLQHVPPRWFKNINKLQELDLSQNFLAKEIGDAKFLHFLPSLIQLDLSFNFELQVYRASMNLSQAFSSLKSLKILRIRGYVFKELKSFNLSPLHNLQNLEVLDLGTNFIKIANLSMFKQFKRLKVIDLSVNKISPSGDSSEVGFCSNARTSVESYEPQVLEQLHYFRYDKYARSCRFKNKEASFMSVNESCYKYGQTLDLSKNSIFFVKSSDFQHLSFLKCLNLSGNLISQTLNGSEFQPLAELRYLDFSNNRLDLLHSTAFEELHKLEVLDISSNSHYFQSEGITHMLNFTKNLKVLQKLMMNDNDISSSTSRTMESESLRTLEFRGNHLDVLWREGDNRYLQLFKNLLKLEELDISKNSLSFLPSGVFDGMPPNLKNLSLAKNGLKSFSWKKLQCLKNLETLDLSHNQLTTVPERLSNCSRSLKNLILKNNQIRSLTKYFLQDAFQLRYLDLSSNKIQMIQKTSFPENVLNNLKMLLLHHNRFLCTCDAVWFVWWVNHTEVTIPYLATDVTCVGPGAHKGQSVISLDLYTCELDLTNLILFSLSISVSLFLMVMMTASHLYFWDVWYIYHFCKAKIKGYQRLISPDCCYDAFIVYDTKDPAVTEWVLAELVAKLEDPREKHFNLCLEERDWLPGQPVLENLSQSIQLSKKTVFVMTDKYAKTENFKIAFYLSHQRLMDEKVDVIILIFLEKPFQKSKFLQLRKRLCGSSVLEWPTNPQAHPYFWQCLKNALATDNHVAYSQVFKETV
Summary of the method: as §1

human TLR8 = target: T3, human TLR8 (Homo sapiens, UniProt Q9NR97); assay: TLR8 inhibition reporter assay (HEK-Blue cells, secreted embryonic alkaline phosphatase reporter); details: HEK-Blue cells overexpressing human TLR8, stimulated with R848 15.9 μM; read-out: TLR 8 IC50
T3 construct: host or cells: HEK-Blue cells (HEK293-derived reporter line)
T3 sequence (Q9NR97 27-1041): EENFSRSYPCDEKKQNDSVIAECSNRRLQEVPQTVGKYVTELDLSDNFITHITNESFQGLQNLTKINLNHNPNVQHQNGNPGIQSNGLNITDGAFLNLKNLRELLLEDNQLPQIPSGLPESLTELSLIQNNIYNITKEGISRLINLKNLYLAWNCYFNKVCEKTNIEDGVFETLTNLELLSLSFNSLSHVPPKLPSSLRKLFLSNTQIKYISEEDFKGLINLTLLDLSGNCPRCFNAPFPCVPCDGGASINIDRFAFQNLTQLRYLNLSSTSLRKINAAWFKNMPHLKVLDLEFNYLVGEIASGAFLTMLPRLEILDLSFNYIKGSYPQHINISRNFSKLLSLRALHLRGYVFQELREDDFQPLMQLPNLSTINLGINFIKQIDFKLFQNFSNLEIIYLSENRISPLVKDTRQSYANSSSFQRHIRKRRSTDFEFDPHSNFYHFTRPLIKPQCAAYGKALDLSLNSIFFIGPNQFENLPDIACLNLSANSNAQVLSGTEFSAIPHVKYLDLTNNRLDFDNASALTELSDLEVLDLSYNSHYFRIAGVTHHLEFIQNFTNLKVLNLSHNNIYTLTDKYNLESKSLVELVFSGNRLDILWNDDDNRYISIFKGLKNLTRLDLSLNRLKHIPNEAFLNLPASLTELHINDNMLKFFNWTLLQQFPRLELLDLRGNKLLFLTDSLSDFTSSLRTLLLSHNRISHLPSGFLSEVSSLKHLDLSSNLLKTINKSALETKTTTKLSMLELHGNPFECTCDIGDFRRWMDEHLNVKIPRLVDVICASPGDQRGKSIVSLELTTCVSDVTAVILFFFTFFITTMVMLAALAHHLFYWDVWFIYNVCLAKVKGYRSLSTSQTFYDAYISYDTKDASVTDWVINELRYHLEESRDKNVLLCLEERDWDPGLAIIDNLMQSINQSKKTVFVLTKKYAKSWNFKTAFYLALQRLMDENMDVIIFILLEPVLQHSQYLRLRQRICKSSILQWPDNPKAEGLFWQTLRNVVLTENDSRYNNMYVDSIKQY
Summary of the method: as §1

[1] = HEK-Blue cells overexpressing human TLR9, stimulated with ODN2006 5 nM, 22 hour incubation, reporter readout
[2] = HEK-Blue cells overexpressing human TLR9, stimulated with ODN2006 5 nM, read-out: TLR 9 IC50
[3] = HEK-Blue human TLR9 reporter cells

Row | pIC50 (human TLR9; [1]) | pIC50 (human TLR7) | pIC50 (human TLR8) | pIC50 (human TLR9; [2]) | pIC50 (human TLR9; [3]) | pIC50 (human TLR9) | Compound
1 | 7.27 | 4.59 | < 4.30 |  |  |  | CC(C)N1C2CCC1CC(N1CCC(c3ccc4nc(-c5ccc(S(C)(=O)=O)cc5)n(C)c4c3F)CC1)C2 (single isomer, unassigned) [Example 103, 7-fluoro-6-(1-(8-isopropyl-8-azabicyclo[3.2.1]octan-3-yl)piperidin-4-yl)-1-methyl-2-(4-(methylsulfonyl)phenyl)-1H-benzo[d]imidazole]
2 |  | < 4.30 | < 4.30 | 6.53 | 6.52 |  | Cc1cc(C2CCN(C3CC4CCC(C3)N4C3CCC3)CC2)cc2[nH]c(-c3ccc(S(C)(=O)=O)cc3)nc12 (stereo not shown) [Example 334, 6-(1-(8-cyclobutyl-8-azabicyclo[3.2.1]octan-3-yl)piperidin-4-yl)-4-methyl-2-(4-(methylsulfonyl)phenyl)-1H-benzo[d]imidazole]
3 |  | 4.54 | < 4.30 | 7.39 | 7.39 |  | Cn1c(-c2ccc(S(C)(=O)=O)cc2)nc2c(F)cc(C3CCN(C4CC5CCC(C4)N5C4COC4)CC3)cc21 (stereo not shown) [Example 286, 4-fluoro-1-methyl-2-(4-(methylsulfonyl)phenyl)-6-(1-(8-(oxetan-3-yl)-8-azabicyclo[3.2.1]octan-3-yl)piperidin-4-yl)-1H-benzo[d]imidazole]
4 | 6.24 | 5.51 | < 4.30 | 6.24 |  |  | Cc1cc(C2CCN(C3CC4CCC(C3)N4C3CCC3)CC2)cc2c1nc(-c1ccc(S(C)(=O)=O)c(F)c1)n2C (single isomer, unassigned) [Example 124, 6-(1-(8-cyclobutyl-8-azabicyclo[3.2.1]octan-3-yl)piperidin-4-yl)-2-(3-fluoro-4-(methylsulfonyl)phenyl)-1,4-dimethyl-1H-benzo[d]imidazole]
5 | 7.72 | 4.84 | < 4.60 |  |  |  | Cc1cc(C2CCN(C3CC4CCC(C3)N4CC(C)C)CC2)cc2[nH]c(-c3ccc(S(C)(=O)=O)cc3)nc12 (stereo not shown) [Example 121, 6-(1-(8-isobutyl-8-azabicyclo[3.2.1]octan-3-yl)piperidin-4-yl)-4-methyl-2-(4-(methylsulfonyl)phenyl)-1H-benzo[d]imidazole]
6 | 7.62 | 5.82 | < 4.30 |  |  |  | Cc1cc(C2CCN(C3CCCN(C4CCC4)CC3)CC2)cc2c1nc(-c1ccc(S(C)(=O)=O)cc1)n2C (single isomer, unassigned) [Example 111, 6-(1-(1-cyclobutylazepan-4-yl)piperidin-4-yl)-1,4-dimethyl-2-(4-(methylsulfonyl)phenyl)-1H-benzo[d]imidazole]
7 |  | 5.05 | < 4.60 | 7.51 |  | 7.51 | Cc1cc(C2CCN(C3CC4CCC(C3)N4CC3CCC3)CC2)cc2c1nc(-c1ccc(S(C)(=O)=O)cc1)n2C (single isomer, unassigned) [Example 156, 6-(1-(8-(cyclobutylmethyl)-8-azabicyclo[3.2.1]octan-3-yl)piperidin-4-yl)-1,4-dimethyl-2-(4-(methylsulfonyl)phenyl)-1H-benzo[d]imidazole]
8 |  | < 4.30 | < 4.30 | 7.00 |  | 7.00 | Cn1c(-c2ccc(S(C)(=O)=O)cc2)nc2cc(F)c(C3CCN(C4CC5CCC(C4)N5C4CCOCC4)CC3)cc21 (stereo not shown) [Example 236, 5-fluoro-1-methyl-2-(4-(methylsulfonyl)phenyl)-6-(1-(8-(tetrahydro-2H-pyran-4-yl)-8-azabicyclo[3.2.1]octan-3-yl)piperidin-4-yl)-1H-benzo[d]imidazole]
9 | 7.49 | < 4.30 | < 4.30 |  |  |  | CC(C)N1CCCC(N2CCC(c3ccc4nc(-c5ccc(S(C)(=O)=O)cc5)n(C)c4c3F)CC2)CC1 (single isomer, unassigned) [Example 113, 7-fluoro-6-(1-(1-isopropylazepan-4-yl)piperidin-4-yl)-1-methyl-2-(4-(methylsulfonyl)phenyl)-1H-benzo[d]imidazole]
10 |  | 5.92 | < 4.30 | 7.28 | 7.28 |  | Cc1cc(C2CCN(C3CCN(C4CCC4)CC3)CC2)cc2c1nc(-c1ccc(S(C)(=O)=O)c(F)c1)n2C [Example 337, 6-(1′-cyclobutyl-[1,4′-bipiperidin]-4-yl)-2-(3-fluoro-4-(methylsulfonyl)phenyl)-1,4-dimethyl-1H-benzo[d]imidazole]
11 | 7.68 | 6.52 | 6.05 | 7.68 |  |  | Cc1cc(-c2cc(F)cc(CN3CCC(N4CCCC4)CC3)c2)cc2c1nc(-c1ccc(S(C)(=O)=O)cc1)n2C [Example 405, 6-(3-fluoro-5-((4-(pyrrolidin-1-yl)piperidin-1-yl)methyl)phenyl)-1,4-dimethyl-2-(4-(methylsulfonyl)phenyl)-1H-benzo[d]imidazole]

From US12492188B2, “1H-benzo[D]imidazole derivatives as TLR9 inhibitors for the treatment of fibrosis” (BRISTOL-MYERS SQUIBB COMPANY, priority 2020, dated 2025)
